The text below walks through data of patent publication US20100317647A1 (priority 2009, published 2010).

The structures appear in SMILES notation.

human Cat S, sequence (P25774 115-331): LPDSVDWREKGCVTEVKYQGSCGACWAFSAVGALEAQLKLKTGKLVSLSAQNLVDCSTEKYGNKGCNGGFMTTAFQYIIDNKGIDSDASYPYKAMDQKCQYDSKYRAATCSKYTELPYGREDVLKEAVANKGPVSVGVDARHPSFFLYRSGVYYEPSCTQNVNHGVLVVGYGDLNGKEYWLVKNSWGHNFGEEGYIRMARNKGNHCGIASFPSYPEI

The experiment concerns the target human Cat S (Homo sapiens, UniProt P25774). The experiment can be described thus: Cathepsin enzyme inhibition assay (fluorogenic peptide substrate cleavage). It counts as biochemical. The settings on record: human Cat S 1 nM; substrate Z-Val-Val-Arg-AMC 20 μM; pH 6.5; fluorescence over 20 minutes. The gist of the method: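 Fluorogenic cleavage of Z-Val-Val-Arg-AMC (20 μM) by 1 nM enzyme in 100 mM potassium phosphate pH 6.5, 5 mM EDTA, 5 mM DTT, 0.001% Triton X-100. Reaction started with substrate; fluorescence (ex 360/em 465 nm) followed over 20 minutes. IC50 by standard methods.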
`CO[C@@H]1C[C@H](S(=O)(=O)c2ccc(-c3cnn(C)c3)cc2C(F)(F)F)C[C@H]1C(=O)NC1(C#N)CCN(C)CC1` (racemic) [Example 236, (1R,2R,4R) and (1S,2S,4S)-2-Methoxy-4-[4-(1-methyl-1H-pyrazol-4-yl)-2-trifluoromethyl-benzenesulfonyl]-cyclopentanecarboxylic acid (4-cyano-1-methyl-piperidin-4-yl)-amide] returned an IC50 of 1.8 nM.
In turn, `CC(=O)N1CCN(c2ccc(S(=O)(=O)C3CC(C(=O)NC4(C#N)CC4)C(C(=O)N4CC(F)(F)C4)C3)c(C(F)(F)F)c2)CC1` (stereo not drawn) [Example 131, 4-[4-(4-Acetyl-piperazin-1-yl)-2-trifluoromethyl-benzenesulfonyl]-2-(3,3-difluoro-azetidine-1-carbonyl)-cyclopentanecarboxylic acid (1-cyano-cyclopropyl)-amide] came in with an IC50 of 1.2 nM.
`CC(C)(C)N1CCN(c2ccc(S(=O)(=O)[C@@H]3C[C@@H](C(=O)NC4(C#N)CC4)[C@H](C(=O)N4CC(F)(F)C4)C3)c(Cl)c2)CC1` [Example 160, (1R,2R,4R)-4-[4-(4-tert-Butyl-piperazin-1-yl)-2-chloro-benzenesulfonyl]-2-(3,3-difluoro-azetidine-1-carbonyl)-cyclopentanecarboxylic acid (1-cyano-cyclopropyl)-amide]: inhibition was half-maximal at 0.165 nM (IC50).
With `COCCn1cc(-c2ccc(S(=O)(=O)[C@H]3C[C@@H](OC)[C@H](C(=O)NC4(C#N)CC4)C3)c(C(F)(F)F)c2)cn1` (racemic) [Example 172, (1R,2R,4R) and (1S,2S,4S)-2-Methoxy-4-{4-[1-(2-methoxy-ethyl)-1H-pyrazol-4-yl]-2-trifluoromethyl-benzenesulfonyl}-cyclopentanecarboxylic acid (1-cyano-cyclopropyl)-amide], the IC50 stood at 0.435 nM. Compared with the last compound, the IC50 is about 2.6-fold higher.
The compound `CN1CCN(C(=O)[C@@H]2C[C@H](S(=O)(=O)c3ccccc3)C[C@H]2C(=O)NC2(C#N)CC2)CC1` [Example 26, (1R,2R,4R)-4-Benzenesulfonyl-2-(4-methyl-piperazine-1-carbonyl)-cyclopentanecarboxylic acid (1-cyano-cyclopropyl)-amide] came in with an IC50 of 1.5 nM.
As to `Cn1nccc1-c1ccc(S(=O)(=O)[C@@H]2C[C@@H](C(=O)NC3(C#N)CC3)[C@H](C(=O)N3CCC(F)(F)C3)C2)c(Cl)c1` [Example 196, (1R,2R,4R)-4-[2-Chloro-4-(2-methyl-2H-pyrazol-3-yl)-benzenesulfonyl]-2-(3,3-difluoro-pyrrolidine-1-carbonyl)-cyclopentanecarboxylic acid (1-cyano-cyclopropyl)-amide], the IC50 was found to be 0.215 nM.
Consider `C[C@@H](Oc1ccc(S(=O)(=O)[C@H]2CC[C@H](C(=O)NC3(C#N)CC3)C2)c(Cl)c1)C(F)(F)F` (racemic) [Example 93], for which 565 nM corresponded to half-maximal inhibition (IC50). This IC50 is about 2600-fold higher than that of the compound before.
For `N#CC1(NC(=O)[C@@H]2C[C@@H](S(=O)(=O)c3ccc(F)cc3Cl)C[C@H]2COc2ccncc2)CC1` [Example 163, (1R,2R,4S)-4-(2-Chloro-4-fluoro-benzenesulfonyl)-2-(pyridin-4-yloxymethyl)-cyclopentanecarboxylic acid (1-cyano-cyclopropyl)-amide] the value was 11.1 nM; for `N#CC1(NC(=O)[C@@H]2C[C@@H](S(=O)(=O)c3ccc(N4CCN(CC(F)(F)F)CC4)cc3C(F)(F)F)C[C@H]2OC2CCCC2)CC1` (racemic) [Example 230, (1R,2R,4R) and (1S,2S,4S)-2-Cyclopentyloxy-4-{4-[4-(2,2,2-trifluoro-ethyl)-piperazin-1-yl]-2-trifluoromethyl-benzenesulfonyl}-cyclopentanecarboxylic acid (1-cyano-cyclopropyl)-amide], 0.0275 nM.
Compound `N#CC1(NC(=O)[C@@H]2C[C@@H](S(=O)(=O)c3ccccc3Cl)C[C@H]2Oc2ccc(Cl)cc2)CC1` (racemic) [Example 243, (1R,2R,4R) and (1S,2S,4S)-4-(2-Chloro-benzenesulfonyl)-2-(4-chloro-phenoxy)-cyclopentanecarboxylic acid (1-cyano-cyclopropyl)-amide] gave an IC50 of 1.45 nM.
With `CO[C@@H]1C[C@H](S(=O)(=O)c2ccc(-c3ccc(F)c(F)c3)cc2C(F)(F)F)C[C@H]1C(=O)NC1(C#N)CC1` (racemic) [Example 74, (1R,2R,4R) and (1S,2S,4S)-4-(3′,4′-Difluoro-3-trifluoromethyl-biphenyl-4-sulfonyl)-2-methoxy-cyclopentanecarboxylic acid (1-cyano-cyclopropyl)-amide] the figure was 0.7 nM; with `N#CC1(NC(=O)[C@@H]2C[C@@H](S(=O)(=O)c3ccc(Br)cc3C(F)(F)F)C[C@H]2OC2CCC2)CC1` (racemic) [Example 182, (1R,2R,4R) and (1S,2S,4S)-4-(4-Bromo-2-trifluoromethyl-benzenesulfonyl)-2-cyclobutoxy-cyclopentanecarboxylic acid (1-cyano-cyclopropyl)-amide], 3.8 nM; with `CO[C@@H]1C[C@H](S(=O)(=O)c2ccc(N3CCOCC3)cc2C(F)(F)F)C[C@H]1C(=O)NC1(C#N)CC1` (racemic) [Example 176, (1R,2R,4R) and (1S,2S,4S)-2-Methoxy-4-(4-morpholin-4-yl-2-trifluoromethyl-benzenesulfonyl)-cyclopentanecarboxylic acid (1-cyano-cyclopropyl)-amide], 1.47 nM.
For `CO[C@@H]1C[C@H](S(=O)(=O)c2ccc(-c3cnn(C)c3)cc2C(F)(F)F)C[C@H]1C(=O)NC1(C#N)CC1` (racemic) [Example 66, (1R,2R,4R) and (1S,2S,4S)-2-Methoxy-4-[4-(1-methyl-1H-pyrazol-4-yl)-2-trifluoromethyl-benzenesulfonyl]-cyclopentanecarboxylic acid (1-cyano-cyclopropyl)-amide] the value was 0.7 nM; for `Cn1cc(-c2ccc(S(=O)(=O)[C@H]3C[C@@H](OC4CCC4)[C@H](C(=O)NC4(C#N)CC4)C3)c(C(F)(F)F)c2)cn1` (racemic) [Example 211, (1R,2R,4R) and (1S,2S,4S)-2-Cyclobutoxy-4-[4-(1-methyl-1H-pyrazol-4-yl)-2-trifluoromethyl-benzenesulfonyl]-cyclopentanecarboxylic acid (1-cyano-cyclopropyl)-amide], 0.255 nM; for `N#CC1(NC(=O)[C@@H]2C[C@@H](S(=O)(=O)c3ccc(F)cc3Cl)C[C@H]2COc2ccccc2)CC1` [Example 164, (1R,2R,4S)-4-(2-Chloro-4-fluoro-benzenesulfonyl)-2-phenoxymethyl-cyclopentanecarboxylic acid (1-cyano-cyclopropyl)-amide], 3 nM.
In the case of `CO[C@@H]1C[C@H](S(=O)(=O)c2ccc(-c3ccnc(C)c3)cc2C(F)(F)F)C[C@H]1C(=O)NC1(C#N)CC1` (racemic) [Example 77, (1R,2R,4R) and (1S,2S,4S)-2-Methoxy-4-[4-(2-methyl-pyridin-4-yl)-2-trifluoromethyl-benzenesulfonyl]-cyclopentanecarboxylic acid (1-cyano-cyclopropyl)-amide], 0.6 nM corresponded to half-maximal inhibition (IC50). This IC50 is about 5-fold lower than that of the compound before.
For `N#CC1(NC(=O)[C@@H]2C[C@@H](S(=O)(=O)c3ccc(C4CC4)cc3C(F)(F)F)C[C@H]2C(=O)N2CC(F)(F)C2)CC1` [Example 125, (1R,2R,4R)-4-(4-Cyclopropyl-2-trifluoromethyl-benzenesulfonyl)-2-(3,3-difluoro-azetidine-1-carbonyl)-cyclopentanecarboxylic acid (1-cyano-cyclopropyl)-amide] the value was 0.3 nM.

As usually defined, the IC50 is the midpoint of a concentration-inhibition curve. Lower therefore signals greater potency.
